From the supplement of paper PMC10307832

Columns and labels:
Assay in all cases: relative viability (nuclei count vs DMSO), 5 days (fraction); higher = more cells survive
[1] = compound: COc1cc(N2CCC(N3CCN(C)CC3)CC2)ccc1Nc1ncc(Cl)c(Nc2ccccc2S(=O)(=O)C(C)C)n1 [NVP-TAE684]
Method in brief: (§1)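 Five library-drug doses, separated by factors of √10, were pinned into 1536-well plates holding lung cancer cell lines after an overnight stay at 37 °C. Cells were fixed, permeabilised and Hoechst-stained in one step after 5 days without medium change, then imaged at 4×. Viability compares treated-well with vehicle-well nuclei, counted in MetaXpress, as a median across plates. Passing plates had control CV below 25% and at least one doubling.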

[2] = compound: C1=CC=C2C(=C1)N=C(S2)C(C#N)C3=NC(=NC=C3)NCCC4=CN=CC=C4
Method in brief: as §1

[3] = compound: COc1cc2/c(=N/c3ccc(Br)cc3F)nc[nH]c2cc1OCC1CCN(C)CC1 [Vandetanib]
Method in brief: as §1

[4] = compound: C#Cc1cccc(Nc2ncnc3cc(OC)c(OCCCCCCC(=O)NO)cc23)c1 [CUDC-101]
Method in brief: as §1

UMC-11
relative viability ([1]; 0.2 µM): 1.04
relative viability ([1]; 0.6325 µM): 0.876
relative viability ([1]; 2 µM): 0.465
relative viability ([2]; 0.005 µM): 0.884
relative viability ([2]; 0.01581 µM): 1.01
relative viability ([2]; 0.05 µM): 0.96
relative viability ([2]; 0.1581 µM): 1.16
relative viability ([2]; 0.5 µM): 0.967
relative viability ([3]; 0.02 µM): 0.94
relative viability ([3]; 0.06325 µM): 0.901
relative viability ([3]; 0.2 µM): 0.9
relative viability ([3]; 0.6325 µM): 0.91
relative viability ([3]; 2 µM): 0.964
relative viability ([4]; 0.01 µM): 1.03
relative viability ([4]; 0.03162 µM): 0.957
relative viability ([4]; 0.1 µM): 0.927
relative viability ([4]; 0.3162 µM): 0.705
relative viability ([4]; 1 µM): 0.31
